Assay results published in publication PMC11220795 (Molecular Pharmaceutics, 2024).

Assay: Drug solubility in medium-chain triglycerides (MCT, Miglyol 812 N); SORESOS 96-well assay, miniaturized shake-flask or literature
Conditions: decadic logarithm of molar solubility in MCTs (Miglyol 812 N), 24 h at room temperature; no literature source given
Protocol: The excipient complies with the quality specifications of the European Pharmacopoeia. The solvents used for the ultra-performance liquid chromatography (UPLC) quantification were of UPLC grade.
(b) employing a miniaturized version of the shake-flask method in 2 mL glass vials,[33] or (c) collecting data from the literature.[12],[34] Each of the employed assays involved residual solid-state screenings by powder X-ray diffraction to identify potential solid-state changes during solubility screenings.

Structure (SMILES)	log10 S [M]
C[C@@H](O[C@H]1OCCN(Cc2n[nH]c(=O)[nH]2)[C@H]1c1ccc(F)cc1)c1cc(C(F)(F)F)cc(C(F)(F)F)c1 [aprepitant]	-3.40
OC(Cn1cncn1)(Cn1cncn1)c1ccc(F)cc1F [fluconazole]	-2.19
CN(C)C(=O)Cc1c(C(=O)O)n(Cc2cccc3ccccc23)c2ccc(F)cc12 [RO5066852]	-3.11
COc1ccc(C2CCOCC2)c2sc(NC(=O)N(C)C3CCC(O)CC3)nc12 (stereo not drawn) [RO4518423]	-2.61
Cc1cc(C#N)cc(C)c1Oc1nc(Nc2ccc(C#N)cc2)nc(N)c1Br [etravirine]	-3.28
O=C(CCc1ccc(OC(F)(F)F)cc1)N1C[C@@H]2CN(C(=O)c3ccc4[nH]nnc4c3)C[C@@H]2C1 [RO6888975]	-4.07
Cc1cc(F)ccc1-c1cc(N2CCS(=O)(=O)CC2)ncc1N(C)C(=O)C(C)(C)c1cc(C(F)(F)F)cc(C(F)(F)F)c1 [RO0728351]	-2.03
CN(C(=O)C(C)(C)c1cc(C(F)(F)F)cc(C(F)(F)F)c1)c1cnc(N2CCOCC2)cc1-c1ccccc1Cl [RO0676789]	-1.07
COc1cc(C(=O)Nc2nc3c(OC)ccc([C@H]4COCCO4)c3s2)ccn1 [RO4545823]	-2.38
CN(C(=O)c1ccc(C#Cc2cc(F)ccc2F)cn1)C(C)(C)C [RO6806127]	-1.29
COC(=O)N1CC[C@@H]2[C@@H]1CCC[C@@]2(O)C#Cc1cccc(C)c1 [RO6805580]	-1.31
O=C1Nc2ccc(Cl)cc2[C@@](C#CC2CC2)(C(F)(F)F)O1 [efavirenz]	-0.22
C/C(O)=C(\C#N)C(=O)Nc1ccc(C(F)(F)F)cc1 [teriflunomide]	-2.30
O=C(OCc1ccc(OC(F)(F)F)cc1)N1C[C@@H]2CN(C(=O)c3ccc4n[nH]nc4c3)C[C@@H]2C1 [RO6897779]	-3.50
CCOC(=O)N1CCC(=C2c3ccc(Cl)cc3CCc3cccnc32)CC1 [loratadine]	-1.21
COc1cc(C(F)(F)F)cc(SC)c1C(=O)N[C@@]1(c2ccccc2)C[C@@H](OC)CN(C)C1 [RO5469299]	-1.78
CC(C)(C(=O)NCC(F)(F)C(F)(F)F)C(=O)N[C@@H]1C(=O)Nc2ccccc2-c2ccccc21 [RO4929097]	-2.24
CN1C(=O)N(c2c(F)cc(C#Cc3ccccc3)cc2F)C(=O)C[C@]12CCCc1ncccc12 [RO7059466]	-2.38

Structure (SMILES)	log10 S [M]
CC1(C)CCC(C)(C)c2cc(Cn3cccn3)c(/C=C/c3ccc(C(=O)O)cc3)cc21 [palovarotene]	-3.47
COc1ccc(N2CCOCC2)c2sc(NC(=O)N(C)[C@@H]3C[C@H]4CC[C@@H]3O4)nc12 [RO4651862]	-2.04
Cn1c(=O)c2[nH]cnc2n(C)c1=O [theophylline]	-2.92
Cn1c(COc2cc(Cl)c(C#N)cc2C(C)(C)C)n[nH]c1=O [RO7189752]	-2.76
CC1(C(=O)N2C[C@H](S(=O)(=O)c3ccc(OCC(F)(F)F)cc3C(F)(F)F)C[C@@H]2C(=O)NC2(C#N)CC2)CC1 [RO5444101]	-2.64
Clc1ccc(COC(Cn2ccnc2)c2ccc(Cl)cc2Cl)c(Cl)c1 (stereo not drawn) [miconazole]	-0.86
COc1ccc(N2CCOCC2)c2sc(NC(=O)N3CCC(C)(O)CC3)nc12 [RO4494351]	-3.40
CC(C)(Oc1ccc(Cl)cc1)C(=O)O [clofibric acid]	-0.63
Cc1cccc(C#Cc2cn(-c3cnn(C)c(=O)c3)c(C)n2)c1 [RO5372709]	-2.90
CO[C@@H](Cc1ccc(OCCc2nc(-c3ccccc3)oc2C)c2ccsc12)C(=O)O [aleglitazar]	-2.77
C#Cc1cccc(Nc2ncnc3cc(OCCOC)c(OCCOC)cc23)c1 [erlotinib]	-2.70
Cc1cc(OCc2ccc(-c3ccc(OC(F)(F)F)cc3)nc2)ccc1OC(C)(C)C(=O)O [RO4883572]	-2.52
Cc1onc(-c2ccc(F)cn2)c1COc1ccc(C(=O)N2CCS(=O)(=O)CC2)cn1 [RO5292065]	-2.89
Cc1cc(N(C)Cc2sc(-c3ccc(C(F)(F)F)cc3)nc2C)ccc1OCC(=O)O [RO4632615]	-2.28
COc1cc(C(=O)O)ccc1NC(=O)[C@@H]1N[C@@H](CC(C)(C)C)[C@](C#N)(c2ccc(Cl)cc2F)[C@H]1c1cccc(Cl)c1F [RO5503781]	-1.68
CC[C@H](C)C(=O)O[C@H]1C[C@@H](C)C=C2C=C[C@H](C)[C@H](CC[C@@H]3C[C@@H](O)CC(=O)O3)[C@H]21 [lovastatin]	-2.45
CC(C)(C)c1ccc(CN(CCc2ccc(F)c(C(F)(F)F)c2)C(=O)c2c(F)c(Cl)cc3cc[nH]c23)cc1 [RO4920915]	-1.47
CN1CCN(c2ccc(C(=O)Nc3n[nH]c4ccc(Cc5cc(F)cc(F)c5)cc34)c(NC3CCOCC3)c2)CC1 [RO7102122]	-2.69
